Publication PMC10600239, “Selective MCL-1 inhibitor ABBV-467 is efficacious in tumor models but is associated with cardiac troponin increases in patients” (Communications Medicine, 2023)

Tested on: OCI-AML2 xenografts
Assay: OCI-AML2 xenograft efficacy (tumor volume, body weight)
Settings: for Tumor Volume Day 14, Mean / Tumor Volume Day 14, Median / % T/C (mean), Tumor Volume Day 14 / % T/C (median), Tumor Volume Day 14: Day 14 (measure date = dosing begin); for Tumor Volume Day 14, Mean / Tumor Volume Day 18, Mean / Tumor Volume Day 21, Mean: group mean of 8 mice; for Tumor Volume Day 14, Median / Tumor Volume Day 18, Median / Tumor Volume Day 21, Median: group median of 8 mice; for % T/C (mean), Tumor Volume Day 14 / % T/C (median), Tumor Volume Day 14 / % T/C (mean), Tumor Volume Day 18 / % T/C (median), Tumor Volume Day 18 / % T/C (mean), Tumor Volume Day 21 / % T/C (median), Tumor Volume Day 21: control Group 01; for % T/C (mean), Tumor Volume Day 25: mean(T)/mean(C) vs Group 01 (0 mg/kg); for % T/C (median), Tumor Volume Day 25: median(T)/median(C) vs Group 01 (0 mg/kg); for % Mortality: OCI-AML-2 (DSMZ) xenograft, SCID-beige mouse, F
[1] = ABBV-467 […] Q7Dx3 IV, Venetoclax 25 mg/kg QDx14 PO, 5-Aza 8 mg/kg Q7Dx3 IV
[2] = Venetoclax 25 mg/kg QDx14 PO, 5-Aza 8 mg/kg Q7Dx3 IV
[3] = group mean, n=8, ABBV-467 […] Q7Dx3 IV, Venetoclax 25 mg/kg QDx14 PO, 5-Aza 8 mg/kg Q7Dx3 IV
[4] = group median, n=8, ABBV-467 […] Q7Dx3 IV, Venetoclax 25 mg/kg QDx14 PO, 5-Aza 8 mg/kg Q7Dx3 IV

Method: All animal studies were conducted in accordance with the guidelines approved by the Institutional Animal Care and Use Committees of AbbVie. The research protocol was approved by In Vivo Pharmacology at AbbVie prior to study initiation but was not publicly registered or disclosed. Female C.B-17 SCID-beige mice (AMO-1, OPM-2, NCI-H929, and OCI-AML2 xenografts) and female NSG mice (MV4-11-Red.Fluc systemic) were purchased from Charles River Laboratories (Wilmington, MA). Animals were housed in a light cycle-controlled room with HEPA filtration at 22 °C. Animals had nesting and climbing cage topper as the primary environmental enrichment. Animals were inoculated subcutaneously in the right flank with 5 × 10^6 (AMO-1, OPM-2, NCI-H929, and OCI-AML2) or intravenous (IV) with 5 × 10^6 (MV4-11-Red.Fluc). The inoculation volume (0.2 mL) comprised a 50:50 mixture of cells in growth media and Matrigel (BD Biosciences) for subcutaneous injections and 100% phosphate-buffered saline for IV administration. […] Electronic calipers were used to measure the length and width of each tumor 2 to 3 times per week. Tumor volume was estimated by applying the following equation: volume = length × width^2/2. All groups remained blinded during measurements and dosing; only veterinary staff were aware of group identity. When tumors reached approximately 200 mm^3, mice were randomized by match and distributed into treatment and control groups. All xenograft trials were conducted using 5 to 10 mice per group, and all mice were ear tagged and monitored individually throughout the studies.
For combination studies, all compounds were administered within 30 min of each other.
The tumor growth delay (TGD) percentage was determined as the percentage increase of the median time period for the treatment group to reach an arbitrary tumor volume of 1000 mm^3 relative to the vehicle control group. […] A power analysis was conducted using historical data to determine the number of animals required to yield significance of 0.05 at a 30% difference. There were no animals excluded. Data from experiments in vivo were analyzed using the student’s t-test for TGI values and the Mann–Whitney U test for TGD using Excel and GraphPad Prism. Fisher’s exact test was used to probe significance of differences in response frequency.

**Q.** With `Nc1ncn([C@@H]2O[C@H](CO)[C@@H](O)[C@H]2O)c(=O)n1` [A-37426.0 (5-Aza)] as the compound, how does the “Tumor Volume Day 14, Mean” value [1] read?
**A.** 204.71 mm³

**Q.** And the “Tumor Volume Day 14, Median” value [1]?
**A.** 196.98 mm³

**Q.** What about the “% T/C (mean), Tumor Volume Day 14” value [1] of the same compound?
**A.** 99.83%

**Q.** And the “% T/C (median), Tumor Volume Day 14” value [1]?
**A.** 103.17%

**Q.** And the “Tumor Volume Day 18, Mean” value [1]?
**A.** 420.77 mm³

**Q.** And the “Tumor Volume Day 18, Median” value [1]?
**A.** 428.51 mm³

**Q.** What about the “% T/C (mean), Tumor Volume Day 18” value [1] of the same compound?
**A.** 80.49%

**Q.** And the “% T/C (median), Tumor Volume Day 18” value [1]?
**A.** 74.19%

**Q.** What about the “Tumor Volume Day 21, Mean” value [1] of the same compound?
**A.** 806.97 mm³

**Q.** And the “Tumor Volume Day 21, Median” value [1]?
**A.** 777.56 mm³

**Q.** What about the “% T/C (mean), Tumor Volume Day 21” value [1] of the same compound?
**A.** 88.35%

**Q.** And the “% T/C (median), Tumor Volume Day 21” value [1]?
**A.** 78.44%

**Q.** And the “Mortality Observation Day 25 (individual animals)” value [2]?
**A.** EUTV

**Q.** What about the “Tumor Volume (mm³) Day 25, Mean” value [3] of the same compound?
**A.** 1474.66 mm³

**Q.** What about the “Tumor Volume (mm³) Day 25, Median” value [4] of the same compound?
**A.** 1414.73 mm³

**Q.** And the “% T/C (mean), Tumor Volume Day 25” value [1]?
**A.** 76.12%

**Q.** And the “% T/C (median), Tumor Volume Day 25” value [1]?
**A.** 72.28%

**Q.** And the “% Mortality” value (Group 04, 8 mg/kg IV Q7Dx3)?
**A.** 100.00%

**Q.** `Nc1ncn([C@@H]2O[C@H](CO)[C@@H](O)[C@H]2O)c(=O)n1` [5-azacitidine, reference compound] was tested. Which “effect on OCI-AML2 xenograft growth” value (venetoclax 25 mg/kg QD × 14, azacitidine 8 mg/kg Q7D × 3, or the combination of both) did it give?
**A.** no meaningful effect

**Q.** Which results are given for `Cc1c(Cl)c2c(Cl)c(C)c1-c1c(-c3ccc(F)cc3)sc3ncnc(c13)O[C@@H](C(=O)O)Cc1cc(ccc1OCc1ccnc(-c3ccc(OC[C@H]4COCCO4)cc3)n1)OC[C@@H](CN1CCN(C)CC1)O2` [A-1747745.0 (ABBV-467, MCL-1i)]?
**A.** Tumor Volume Day 14, Mean [1]: 205.07 mm³; Tumor Volume Day 14, Median [1]: 194.10 mm³; % T/C (mean), Tumor Volume Day 14 [1]: 100.01%; % T/C (median), Tumor Volume Day 14 [1]: 101.66%; Tumor Volume Day 18, Mean [1]: 319.69 mm³; Tumor Volume Day 18, Median [1]: 302.00 mm³; % T/C (mean), Tumor Volume Day 18 [1]: 61.16%; % T/C (median), Tumor Volume Day 18 [1]: 52.29%; Tumor Volume Day 21, Mean [1]: 701.23 mm³; Tumor Volume Day 21, Median [1]: 681.22 mm³; % T/C (mean), Tumor Volume Day 21 [1]: 76.77%; % T/C (median), Tumor Volume Day 21 [1]: 68.72%; Tumor Volume (mm³) Day 25, Mean [3]: 978.87 mm³; Tumor Volume (mm³) Day 25, Median [4]: 1025.66 mm³; % T/C (mean), Tumor Volume Day 25 [1]: 50.53%; % T/C (median), Tumor Volume Day 25 [1]: 52.40%; Mortality Observation Day 28 (individual animals) (Day 28, ABBV-467 […] Q7Dx3 IV, Venetoclax 25 mg/kg QDx14 PO, 5-Aza 8 mg/kg Q7Dx3 IV): EUTV; Tumor Volume (mm³) Day 28, Mean (Day 28, group mean, n=8, ABBV-467 […] Q7Dx3 IV, Venetoclax 25 mg/kg QDx14 PO, 5-Aza 8 mg/kg Q7Dx3 IV): 1642.98 mm³; Tumor Volume (mm³) Day 28, Median (Day 28, group median, n=8, ABBV-467 […] Q7Dx3 IV, Venetoclax 25 mg/kg QDx14 PO, 5-Aza 8 mg/kg Q7Dx3 IV): 1495.57 mm³

**Q.** What does the source list for `CC1(C)CCC(CN2CCN(c3ccc(C(=O)NS(=O)(=O)c4ccc(NCC5CCOCC5)c([N+](=O)[O-])c4)c(Oc4cnc5[nH]ccc5c4)c3)CC2)=C(c2ccc(Cl)cc2)C1` [A-1195425.0 (Venetoclax)]?
**A.** Tumor Volume Day 14, Mean [1]: 204.64 mm³; Tumor Volume Day 14, Median [1]: 193.77 mm³; % T/C (mean), Tumor Volume Day 14 [1]: 99.79%; % T/C (median), Tumor Volume Day 14 [1]: 101.49%; Tumor Volume Day 18, Mean [1]: 437.16 mm³; Tumor Volume Day 18, Median [1]: 415.67 mm³; % T/C (mean), Tumor Volume Day 18 [1]: 83.63%; % T/C (median), Tumor Volume Day 18 [1]: 71.96%; Tumor Volume Day 21, Mean [1]: 934.07 mm³; Tumor Volume Day 21, Median [1]: 1005.20 mm³; % T/C (mean), Tumor Volume Day 21 [1]: 102.27%; % T/C (median), Tumor Volume Day 21 [1]: 101.40%; Mortality Observation Day 25 (individual animals) [2]: EUTV; Tumor Volume (mm³) Day 25, Mean [3]: 1624.63 mm³; Tumor Volume (mm³) Day 25, Median [4]: 1781.81 mm³; % T/C (mean), Tumor Volume Day 25 [1]: 83.87%; % T/C (median), Tumor Volume Day 25 [1]: 91.03%; % Mortality (Group 03, 25 mg/kg PO QDx14): 100.00%
